Experiments:
GSPT1 [1] = target: T1, GSPT1 (Homo sapiens (Human), UniProt P15170+Q96SW2); test: GSPT1 degradation in cells treated with compound (FIG. 1A); format: cell-based; conditions: cells treated with 0.3 µM
Target sequence in this assay (P15170 whole entry, looked up): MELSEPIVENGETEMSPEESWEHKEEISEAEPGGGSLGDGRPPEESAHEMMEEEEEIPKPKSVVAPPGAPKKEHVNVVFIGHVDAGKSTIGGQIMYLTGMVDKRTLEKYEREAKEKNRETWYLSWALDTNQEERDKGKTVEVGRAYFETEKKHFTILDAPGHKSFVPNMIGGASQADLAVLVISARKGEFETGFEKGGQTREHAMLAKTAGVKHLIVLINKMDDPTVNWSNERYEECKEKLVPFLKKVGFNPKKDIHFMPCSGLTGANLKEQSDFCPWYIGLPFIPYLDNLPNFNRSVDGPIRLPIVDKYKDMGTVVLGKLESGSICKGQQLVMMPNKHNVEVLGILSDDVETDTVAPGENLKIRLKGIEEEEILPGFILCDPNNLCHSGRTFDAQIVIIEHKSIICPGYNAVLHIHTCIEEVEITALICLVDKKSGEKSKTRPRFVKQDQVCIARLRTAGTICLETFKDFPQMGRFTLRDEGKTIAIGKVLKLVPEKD
Target sequence in this assay (Q96SW2 whole entry, looked up): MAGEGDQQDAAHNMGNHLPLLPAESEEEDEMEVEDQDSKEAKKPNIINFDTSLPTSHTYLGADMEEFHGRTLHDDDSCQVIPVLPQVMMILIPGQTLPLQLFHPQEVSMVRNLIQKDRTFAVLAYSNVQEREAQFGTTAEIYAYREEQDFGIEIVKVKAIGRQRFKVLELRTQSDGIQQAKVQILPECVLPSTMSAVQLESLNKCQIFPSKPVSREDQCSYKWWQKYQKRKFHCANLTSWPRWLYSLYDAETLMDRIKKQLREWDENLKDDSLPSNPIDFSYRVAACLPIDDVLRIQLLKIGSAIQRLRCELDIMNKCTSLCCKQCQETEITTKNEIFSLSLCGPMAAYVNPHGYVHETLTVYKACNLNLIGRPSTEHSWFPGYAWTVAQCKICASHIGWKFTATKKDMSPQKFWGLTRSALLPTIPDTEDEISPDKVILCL
Target sequence in this assay (Q16531 whole entry partner, looked up): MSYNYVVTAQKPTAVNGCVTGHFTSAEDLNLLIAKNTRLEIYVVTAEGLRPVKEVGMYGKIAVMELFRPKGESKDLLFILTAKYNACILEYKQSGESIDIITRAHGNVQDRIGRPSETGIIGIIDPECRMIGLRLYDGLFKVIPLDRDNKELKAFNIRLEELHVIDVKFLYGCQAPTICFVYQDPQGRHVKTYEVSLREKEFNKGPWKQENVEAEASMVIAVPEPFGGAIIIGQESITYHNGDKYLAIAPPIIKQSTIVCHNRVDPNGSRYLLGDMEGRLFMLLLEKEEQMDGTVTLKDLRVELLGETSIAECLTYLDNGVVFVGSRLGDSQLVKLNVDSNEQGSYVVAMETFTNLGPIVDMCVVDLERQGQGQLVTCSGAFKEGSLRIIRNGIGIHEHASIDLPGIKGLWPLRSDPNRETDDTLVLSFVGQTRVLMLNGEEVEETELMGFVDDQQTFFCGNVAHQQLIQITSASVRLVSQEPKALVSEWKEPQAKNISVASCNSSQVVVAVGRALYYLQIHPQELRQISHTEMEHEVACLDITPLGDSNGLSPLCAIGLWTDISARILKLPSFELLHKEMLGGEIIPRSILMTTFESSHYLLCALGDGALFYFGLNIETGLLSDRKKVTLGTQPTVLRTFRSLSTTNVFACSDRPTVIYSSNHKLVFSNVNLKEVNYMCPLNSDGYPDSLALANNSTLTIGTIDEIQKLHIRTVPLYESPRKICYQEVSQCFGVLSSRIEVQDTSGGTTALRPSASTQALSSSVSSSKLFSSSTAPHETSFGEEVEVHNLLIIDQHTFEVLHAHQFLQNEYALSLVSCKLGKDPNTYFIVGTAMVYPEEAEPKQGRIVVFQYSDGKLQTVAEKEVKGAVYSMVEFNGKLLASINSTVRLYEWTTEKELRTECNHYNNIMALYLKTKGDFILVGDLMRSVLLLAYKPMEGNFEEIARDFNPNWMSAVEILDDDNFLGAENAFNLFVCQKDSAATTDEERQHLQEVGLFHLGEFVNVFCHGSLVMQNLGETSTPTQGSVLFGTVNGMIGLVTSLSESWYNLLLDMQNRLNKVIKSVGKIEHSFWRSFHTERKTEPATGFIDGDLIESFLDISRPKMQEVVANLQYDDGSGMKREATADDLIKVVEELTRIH

SALL = SALL (Homo sapiens (Human), UniProt Q9UJQ4); test: SALL degradation in cells treated with compound (FIG. 1A); format: cell-based; conditions: concentrations up to 30 µM
GSPT1 [2] = target: T1, GSPT1; test: Mass spectrometry-based proteomics analysis of a treated cancer cell line (FIG. 1B); conditions: cancer cell line treated with compound; fold-change (log2) vs p-value
Target sequence in this assay (P15170 whole entry, looked up): as the sequence (P15170 whole entry, looked up) above
Target sequence in this assay (Q96SW2 whole entry, looked up): as the sequence (Q96SW2 whole entry, looked up) above
Target sequence in this assay (Q16531 whole entry partner, looked up): as the sequence (Q16531 whole entry partner, looked up) above

GSPT1 [3] = target: GSPT1 (Homo sapiens (Human), UniProt P15170); test: GSPT1 degradation in tumors of treated mice (FIG. 3B); format: in vivo, mouse; conditions: all three dose levels (1, 3, 6 mg/kg), compared to vehicle control
Chain of GSPT1 (Homo sapiens (Human), UniProt P15170) (P15170 whole entry): as the sequence (P15170 whole entry, looked up) above
Chain of GSPT1 (Homo sapiens (Human), UniProt P15170) (Q96SW2 whole entry, further chain): as the sequence (Q96SW2 whole entry, looked up) above
Chain of GSPT1 (Homo sapiens (Human), UniProt P15170) (Q16531 2-1140 partner): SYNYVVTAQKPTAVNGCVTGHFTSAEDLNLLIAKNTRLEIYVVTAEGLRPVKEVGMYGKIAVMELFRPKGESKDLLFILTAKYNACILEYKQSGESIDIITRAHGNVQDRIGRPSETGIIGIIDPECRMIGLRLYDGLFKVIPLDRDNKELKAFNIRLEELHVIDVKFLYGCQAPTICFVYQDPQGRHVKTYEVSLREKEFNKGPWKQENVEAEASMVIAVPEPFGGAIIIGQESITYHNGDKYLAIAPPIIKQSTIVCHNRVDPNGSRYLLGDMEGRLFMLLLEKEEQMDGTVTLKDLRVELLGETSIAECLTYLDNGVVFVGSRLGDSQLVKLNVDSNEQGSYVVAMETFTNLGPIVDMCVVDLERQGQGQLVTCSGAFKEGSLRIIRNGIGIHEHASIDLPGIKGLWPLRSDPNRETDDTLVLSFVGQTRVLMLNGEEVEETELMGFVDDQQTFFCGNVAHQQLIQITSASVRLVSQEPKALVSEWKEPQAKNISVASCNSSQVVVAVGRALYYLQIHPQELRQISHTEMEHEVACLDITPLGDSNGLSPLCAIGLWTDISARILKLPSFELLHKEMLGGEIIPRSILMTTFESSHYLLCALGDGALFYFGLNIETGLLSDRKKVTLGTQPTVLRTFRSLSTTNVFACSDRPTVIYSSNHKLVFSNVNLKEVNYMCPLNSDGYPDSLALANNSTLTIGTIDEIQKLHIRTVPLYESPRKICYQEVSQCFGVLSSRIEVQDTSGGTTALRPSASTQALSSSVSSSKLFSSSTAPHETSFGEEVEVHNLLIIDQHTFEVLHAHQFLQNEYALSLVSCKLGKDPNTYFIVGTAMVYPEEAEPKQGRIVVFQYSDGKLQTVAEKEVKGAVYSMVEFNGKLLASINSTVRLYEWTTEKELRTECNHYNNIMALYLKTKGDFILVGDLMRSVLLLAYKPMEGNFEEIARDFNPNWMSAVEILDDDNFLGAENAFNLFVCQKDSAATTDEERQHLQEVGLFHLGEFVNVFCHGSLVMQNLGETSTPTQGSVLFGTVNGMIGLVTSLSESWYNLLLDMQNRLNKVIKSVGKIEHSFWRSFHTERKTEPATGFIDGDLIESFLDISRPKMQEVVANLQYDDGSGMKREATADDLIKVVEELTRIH

human cell line NCI-H526 = test: N-Myc-driven mouse xenograft model, NCI-H526 (FIG. 3D); format: in vivo
GSPT1 [4] = target: T1, GSPT1; test: quantitative proteomics analysis in ABC1 cells; format: cell-based; conditions: 100 nM, 6 hr
Method: Quantitative Proteomics Analysis: ABC1 cells were treated with either DMSO (2 replicates) or compound 10 at 100 nM (2 replicates) for 6 hr. Proteins were extracted with the PreOmics iST-NHS lysis buffer (#P.O.00030). The samples were then processed using the PreOmics kit following their recommended protocol with minor modifications. In brief, the proteins were reduced, alkylated and digested for 2 h at 37° C. The peptides were then labelled with TMT reagent (1:4; peptide:TMT label) (Thermo Fisher Scientific). After quenching, the peptides were purified, and the 16 samples were combined to a 1:1 ratio. […] Eluted TMT peptides were analyzed on an Orbitrap Eclipse mass spectrometer (Thermo Fisher Scientific). […] Precursors were fragmented by CID at a normalized collision energy (NCE) of 35% and analyzed in the ion trap. Following MS2, synchronous precursor selection (SPS) MS3 scans were collected by using high energy collision-induced dissociation (HCD) and fragments were analyzed using the Orbitrap (NCE 55%, AGC target 1×10^5, maximum injection time 120 ms, resolution 60,000). Protein identification and quantification were performed using Proteome Discoverer 2.4.0.305 with the SEQUEST algorithm and Uniprot human database (2021 Jan. 29, 20614 protein sequences). […] Protein relative quantification was performed using an in-house developed java notebook. […]
Target sequence in this assay (P15170 whole entry): as the sequence (P15170 whole entry, looked up) above
Target sequence in this assay (Q96SW2 whole entry): as the sequence (Q96SW2 whole entry, looked up) above
Target sequence in this assay (Q16531 2-1140 partner): as the sequence (Q16531 2-1140 partner) above

Chain of SALL (Q9UJQ4 whole entry, looked up): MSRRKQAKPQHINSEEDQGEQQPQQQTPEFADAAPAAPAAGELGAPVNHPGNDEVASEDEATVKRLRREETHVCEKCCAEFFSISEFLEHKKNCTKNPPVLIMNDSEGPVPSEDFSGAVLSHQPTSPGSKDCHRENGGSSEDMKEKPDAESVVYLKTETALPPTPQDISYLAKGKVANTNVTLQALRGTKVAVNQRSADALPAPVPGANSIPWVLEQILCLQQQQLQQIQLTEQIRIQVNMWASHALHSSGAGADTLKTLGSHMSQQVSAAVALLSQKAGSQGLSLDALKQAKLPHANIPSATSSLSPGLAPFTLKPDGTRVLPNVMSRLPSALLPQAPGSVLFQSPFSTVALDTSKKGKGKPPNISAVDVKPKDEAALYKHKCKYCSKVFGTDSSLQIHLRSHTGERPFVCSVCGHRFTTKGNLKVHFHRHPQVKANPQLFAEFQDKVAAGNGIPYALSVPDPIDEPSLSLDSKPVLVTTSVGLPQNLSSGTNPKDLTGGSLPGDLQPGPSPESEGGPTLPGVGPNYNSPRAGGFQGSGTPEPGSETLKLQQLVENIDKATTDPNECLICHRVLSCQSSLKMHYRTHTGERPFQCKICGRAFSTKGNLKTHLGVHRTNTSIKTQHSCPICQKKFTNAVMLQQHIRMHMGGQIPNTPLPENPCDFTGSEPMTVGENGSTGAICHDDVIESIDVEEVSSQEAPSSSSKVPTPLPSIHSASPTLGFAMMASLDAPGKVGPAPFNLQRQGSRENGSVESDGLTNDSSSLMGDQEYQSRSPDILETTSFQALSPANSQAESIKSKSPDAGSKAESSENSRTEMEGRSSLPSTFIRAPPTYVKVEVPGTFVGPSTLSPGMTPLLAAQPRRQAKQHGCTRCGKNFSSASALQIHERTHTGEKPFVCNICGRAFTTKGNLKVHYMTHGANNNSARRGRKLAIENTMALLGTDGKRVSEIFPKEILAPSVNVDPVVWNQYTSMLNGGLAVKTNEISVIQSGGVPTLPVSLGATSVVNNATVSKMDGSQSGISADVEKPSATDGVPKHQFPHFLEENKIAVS

Cc1ccc(NC(=O)OCc2ccc3c(c2)C(=O)N(C2CCC(=O)NC2=O)C3)cc1Cl (stereo not drawn) [Compound 10]
degradation of GSPT1 (GSPT1 [1]): complete degradation | degradation of SALL (SALL): no induction of degradation | GSPT1 protein change in proteomics analysis (GSPT1 [2]): most statistically significant downregulated protein | degradation of GSPT1 in tumors (GSPT1 [3]): complete degradation | tumor size (tumor volume) (human cell line NCI-H526; 3 mg/kg PO once daily): tumor size decreased and remained so until the end of the study | tumor size (tumor volume) (human cell line NCI-H526; 6 mg/kg PO five days on and nine days off): tumor size decreased and remained so until the end of the study | body weight (human cell line NCI-H526; oral administration): no body weight loss | effect on tumor growth (tumor volume) (human cell line NCI-H526; oral administration): tumor growth inhibition | protein downregulation by mass spectrometry-based proteomics (FIG. 1B) (GSPT1 [4]): GSPT1 was the most statistically significant downregulated protein
